Laboratory results from ChEMBL document CHEMBL1641475, “Synthesis, hypolipidemic and hypoglycemic activity of some novel 2-(4-(2-substituted aminothiazole-4-yl) phenoxy)-2-methyl propanoic acid derivatives” (2011).

What was measured:
Assay type in all cases: functional
Rattus norvegicus [1] = experiment: Antihyperlipidemic activity in high fat diet-induced hyperlipidemic Sprague-Dawley rat assessed as blood cholesterol level at 250 mg/kg, po after 7 days (reference value: 121.5 +/- 1.335 mg/dl)
Rattus norvegicus [2] = experiment: Antihyperlipidemic activity in high fat diet-induced hyperlipidemic Sprague-Dawley rat assessed as blood triglyceride level at 250 mg/kg, po after 7 days (reference value: 135 +/- 1.592 mg/dl)
Rattus norvegicus [3] = experiment: Antihyperlipidemic activity in high fat diet-induced hyperlipidemic Sprague-Dawley rat assessed as blood VLDL level at 250 mg/kg, po after 7 days (reference value: 27 +/- 0.3183 mg/dl)
Rattus norvegicus [4] = experiment: Antihyperlipidemic activity in high fat diet-induced hyperlipidemic Sprague-Dawley rat assessed as blood LDL level at 250 mg/kg, po after 7 days (reference value: 75.5 +/- 1.24 mg/dl)
Rattus norvegicus [5] = experiment: Antihyperlipidemic activity in high fat diet-induced hyperlipidemic Sprague-Dawley rat assessed as blood HDL level at 250 mg/kg, po after 7 days (reference value: 19 +/- 0.5774 mg/dl)
Rattus norvegicus [6] = experiment: Antihyperglycemic activity in high fat diet-induced hyperglycemic Sprague-Dawley rat assessed as blood glucose level at 250 mg/kg, po after 7 days (reference value: 106.3 +/- 0.6666 mg/dl)

Row | Compound | Activity (Rattus norvegicus [1]) [mg/dL] | Activity (Rattus norvegicus [2]) [mg/dL] | Activity (Rattus norvegicus [3]) [mg/dL] | Activity (Rattus norvegicus [4]) [mg/dL] | Activity (Rattus norvegicus [5]) [mg/dL] | Activity (Rattus norvegicus [6]) [mg/dL]
1 | CC(=O)Nc1nc(-c2ccc(OC(C)(C)C(=O)O)cc2)cs1 | 108.3 | 80.5 | 16.1 | 60.63 | 32.67 | 81.5
2 | CC(C)(Oc1ccc(-c2csc(NC(=O)c3ccccc3)n2)cc1)C(=O)O | 96.5 | 85.5 | 15.47 | 43.67 | 37 | 74.5
3 | CC(C)(Oc1ccc(-c2csc(NCC(=O)c3ccc(Cl)cc3)n2)cc1)C(=O)O | 108.3 | 77.33 | 16.23 | 61.18 | 32.5 | 74.33
4 | CC(C)(Oc1ccc(-c2csc(NC(=O)CCl)n2)cc1)C(=O)O | 111.5 | 85.5 | 17.1 | 59.53 | 34.33 | 72.33
5 | CC(C)(Oc1ccc(-c2csc(NC(=O)C(=O)Cl)n2)cc1)C(=O)O | 96.5 | 82.67 | 15.47 | 49.35 | 32.5 | 75.17
6 | CC(C)OC(=O)C(C)(C)Oc1ccc(C(=O)c2ccc(Cl)cc2)cc1 [FENOFIBRATE] | 105.2 | 73.17 | 14.67 | 55.33 | 33.5 | 70.5
7 | CC(C)(Oc1ccc(-c2csc(NC(=O)CC(=O)Cl)n2)cc1)C(=O)O | 116.5 | 81.17 | 16.53 | 67.75 | 35.83 | 66.67
